According to PubChem BioAssay AID192 (DTP/NCI, 2004):
“And” between values parts separate entries of the source, which are not always exact repeats. Equal values may be shown once. Inconclusive results and toxic doses are left out. The calls were made as follows: active = survival T/C of 150% or more; inactive = T/C below 125% in these data.

System: BDF1 mice, B16 melanoma ip, median survival T/C
Assay: NCI In Vivo Anticancer Drug Screen. Data for tumor model B16 Melanoma (intraperitoneal) in B6D2F1 (BDF1) mice
Conditions: endpoint: median survival time, higher = longer survival
Protocol: The antitumor activity of compounds was measured in mice bearing transplantable tumors. Survival or tumor size were measured and the results are expressed as the measurement made in the treated group (T) divided by the measurement made in the vehicle treated control group (C). The tumor model used in this assay is B16 Melanoma (intraperitoneal) in B6D2F1 (BDF1) mice

[1] = dose: 50.0 mg/kg/injection, schedule: Q01DX009 (ip), vehicle: saline
[2] = dose: 100.0 mg/kg/injection, schedule: Q01DX009 (ip), vehicle: saline
[3] = dose: 50.0 mg/kg/injection, schedule: Q01DX009 (ip), vehicle: saline with Tween-80

Measured: T/C

O=C(O)CC(NC(=O)CP(=O)(O)O)C(=O)O (stereo not drawn)
inactive: dose: 10.0 mg/kg/injection, schedule: Q01DX005 (ip), vehicle: saline 112 % of control | dose: 20.0 mg/kg/injection, schedule: Q01DX005 (ip), vehicle: saline 123 % of control | dose: 117.0 mg/kg/injection, schedule: Q04DX003 (oral), vehicle: saline 106 % of control | dose: 118.0 mg/kg/injection, schedule: Q01DX009 (oral), vehicle: saline 100 % of control | dose: 194.0 mg/kg/injection, schedule: Q04DX003 (oral), vehicle: saline 110 % of control | dose: 324.0 mg/kg/injection, schedule: Q04DX003 (oral), vehicle: saline 95 % of control | dose: 400.0 mg/kg/injection, schedule: Q01DX001 (oral), vehicle: saline 97 % of control | dose: 400.0 mg/kg/injection, schedule: Q01DX004 (ip), vehicle: saline 46 % of control | dose: 540.0 mg/kg/injection, schedule: Q04DX003 (oral), vehicle: saline 110 % of control | dose: 900.0 mg/kg/injection, schedule: Q01DX001 (oral), vehicle: saline 100 % of control | dose: 1350.0 mg/kg/injection, schedule: Q01DX001 (sc), vehicle: saline 120 % of control | dose: 1500.0 mg/kg/injection, schedule: Q01DX001 (ip), vehicle: saline 119 % of control
86 % of control and 201 % of control: dose: 600.0 mg/kg/injection, schedule: Q04DX003 (ip), vehicle: saline
active: dose: 15.6 mg/kg/injection, schedule: Q03HX024 (ip), vehicle: saline 175 % of control | dose: 21.9 mg/kg/injection, schedule: Q01DX009 (ip), vehicle: saline 150 % of control | dose: 25.9 mg/kg/injection, schedule: Q03HX024 (ip), vehicle: saline 176 % of control | dose: 31.1 mg/kg/injection, schedule: Q01DX009 (ip), vehicle: saline 156 % of control | dose: 32.9 mg/kg/injection, schedule: Q01DX009 (ip), vehicle: saline 164 % of control | dose: 43.2 mg/kg/injection, schedule: Q03HX024 (ip), vehicle: saline 182 % of control | dose: 49.4 mg/kg/injection, schedule: Q01DX009 (ip), vehicle: saline 174 % of control | dose: 51.8 mg/kg/injection, schedule: Q01DX009 (ip), vehicle: saline 177 % of control | dose: 74.1 mg/kg/injection, schedule: Q01DX009 (ip), vehicle: saline 182 % of control | dose: 77.8 mg/kg/injection, schedule: Q04DX003 (ip), vehicle: saline 153 % of control | dose: 79.0 mg/kg/injection, schedule: Q01DX009 (ip), vehicle: saline 170 % of control | dose: 79.0 mg/kg/injection, schedule: Q01DX009 (sc), vehicle: saline 165 % of control | dose: 86.4 mg/kg/injection, schedule: Q01DX004 (ip), vehicle: saline 173 % of control | dose: 86.4 mg/kg/injection, schedule: Q01DX009 (ip), vehicle: saline 177 % of control | dose: 111.0 mg/kg/injection, schedule: Q01DX009 (ip), vehicle: saline 201 % of control | dose: 118.0 mg/kg/injection, schedule: Q01DX009 (ip), vehicle: saline 185 % of control | dose: 118.0 mg/kg/injection, schedule: Q01DX009 (sc), vehicle: saline 176 % of control | dose: 125.0 mg/kg/injection, schedule: Q04DX003 (ip), vehicle: saline 162 % of control | dose: 130.0 mg/kg/injection, schedule: Q04DX003 (ip), vehicle: saline 168 % of control and 171 % of control | dose: 144.0 mg/kg/injection, schedule: Q01DX004 (ip), vehicle: saline 178 % of control | dose: 144.0 mg/kg/injection, schedule: Q01DX009 (ip), vehicle: saline 199 % of control | dose: 160.0 mg/kg/injection, schedule: Q01DX005 (ip), vehicle: saline 159 % of control | dose: 167.0 mg/kg/injection, schedule: Q01DX009 (ip), vehicle: saline 204 % of control | dose: 177.0 mg/kg/injection, schedule: Q01DX009 (ip), vehicle: saline 177 % of control | dose: 177.0 mg/kg/injection, schedule: Q01DX009 (sc), vehicle: saline 178 % of control | dose: 216.0 mg/kg/injection, schedule: Q04DX003 (ip), vehicle: saline 161 % of control and 201 % of control | dose: 240.0 mg/kg/injection, schedule: Q01DX004 (ip), vehicle: saline 183 % of control | dose: 250.0 mg/kg/injection, schedule: Q01DX009 (ip), vehicle: saline 190 % of control | dose: 250.0 mg/kg/injection, schedule: Q04DX003 (ip), vehicle: saline 182 % of control | dose: 320.0 mg/kg/injection, schedule: Q01DX005 (ip), vehicle: saline 175 % of control | dose: 324.0 mg/kg/injection, schedule: Q01DX001 (ip), vehicle: saline 168 % of control | dose: 360.0 mg/kg/injection, schedule: Q04DX003 (ip), vehicle: saline 171 % of control and 227 % of control | dose: 500.0 mg/kg/injection, schedule: Q04DX003 (ip), vehicle: saline 197 % of control | dose: 540.0 mg/kg/injection, schedule: Q01DX001 (ip), vehicle: saline 174 % of control | dose: 900.0 mg/kg/injection, schedule: Q01DX001 (ip), vehicle: saline 154 % of control and 190 % of control | dose: 900.0 mg/kg/injection, schedule: Q01DX001 (sc), vehicle: saline 154 % of control | dose: 1350.0 mg/kg/injection, schedule: Q01DX001 (ip), vehicle: saline 150 % of control

CCN(CC)CCN(C)CCN(CC)CC
inactive: [1] 100 % of control | [2] 94 % of control

CCCCCCCCCCCC[N+](C)(C)Cc1ccccc1
inactive: dose: 0.25 mg/kg/injection, schedule: Q01DX009 (ip), vehicle: saline 100 % of control and 110 % of control | dose: 0.25 mg/kg/injection, schedule: Q04DX003 (ip), vehicle: saline 103 % of control | dose: 0.5 mg/kg/injection, schedule: Q01DX009 (ip), vehicle: saline 97 % of control and 105 % of control and 107 % of control | dose: 0.5 mg/kg/injection, schedule: Q04DX003 (ip), vehicle: saline 95 % of control and 100 % of control | dose: 1.0 mg/kg/injection, schedule: Q01DX009 (ip), vehicle: saline 92 % of control and 104 % of control | dose: 1.0 mg/kg/injection, schedule: Q04DX003 (ip), vehicle: saline 96 % of control | dose: 2.0 mg/kg/injection, schedule: Q01DX009 (ip), vehicle: saline 88 % of control and 106 % of control | dose: 2.0 mg/kg/injection, schedule: Q04DX003 (ip), vehicle: saline 88 % of control | dose: 4.0 mg/kg/injection, schedule: Q01DX009 (ip), vehicle: saline 94 % of control and 100 % of control | dose: 4.0 mg/kg/injection, schedule: Q04DX003 (ip), vehicle: saline 93 % of control
active: dose: 2.0 mg/kg/injection, schedule: Q01DX009 (ip), vehicle: saline with Tween-80 150 % of control | dose: 2.0 mg/kg/injection, schedule: Q04DX003 (ip), vehicle: saline with Tween-80 158 % of control | dose: 4.0 mg/kg/injection, schedule: Q04DX003 (ip), vehicle: saline with Tween-80 177 % of control

O=C(Nc1ccccc1C(F)(F)F)C(c1ccccc1)c1ccccc1
inactive: dose: 12.5 mg/kg/injection, schedule: Q01DX009 (ip), vehicle: saline with Tween-80 101 % of control | dose: 25.0 mg/kg/injection, schedule: Q01DX009 (ip), vehicle: saline with Tween-80 98 % of control | [3] 97 % of control

CCC(=O)Oc1ccc(OCc2ccccc2)cc1
inactive: dose: 100.0 mg/kg/injection, schedule: Q04DX003 (ip), vehicle: Klucel (hydroxypropylcellulose) (HPC) 95 % of control | dose: 200.0 mg/kg/injection, schedule: Q04DX003 (ip), vehicle: Klucel (hydroxypropylcellulose) (HPC) 86 % of control | dose: 400.0 mg/kg/injection, schedule: Q04DX003 (ip), vehicle: Klucel (hydroxypropylcellulose) (HPC) 97 % of control

CC1(C)N=C(N)N=C(N)N1c1ccc(OCCOc2ccc(S(=O)(=O)F)cc2)c(Cl)c1
inactive: dose: 12.5 mg/kg/injection, schedule: Q04DX003 (ip), vehicle: saline 107 % of control | dose: 25.0 mg/kg/injection, schedule: Q04DX003 (ip), vehicle: saline 121 % of control

CN(C)CCCC#N
inactive: dose: 25.0 mg/kg/injection, schedule: Q01DX009 (ip), vehicle: saline 100 % of control | [1] 100 % of control | [2] 100 % of control

CC(C)c1ccc(C2CCCCC2O)cc1 (stereo not drawn)
inactive: [3] 94 % of control | dose: 100.0 mg/kg/injection, schedule: Q01DX009 (ip), vehicle: saline with Tween-80 88 % of control

C/C=C/c1cc2n(c1)C(=O)c1cc(OC3OC(C)C(NC)C(C)(O)C3O)c(C)c(O)c1NC2O (stereo not drawn)
active: dose: 0.02 mg/kg/injection, schedule: Q04DX003 (ip), vehicle: DMSO 168 % of control | dose: 0.5 micrograms/kg/injection, schedule: Q04DX003 (ip), vehicle: saline 184 % of control | dose: 1.0 micrograms/kg/injection, schedule: Q04DX003 (ip), vehicle: saline 184 % of control | dose: 2.0 micrograms/kg/injection, schedule: Q04DX003 (ip), vehicle: saline 197 % of control | dose: 16.0 micrograms/kg/injection, schedule: Q04DX003 (ip), vehicle: saline 151 % of control
